Reference: PMC3458734, “Partial thioamide scan on the lipopeptaibiotic trichogin GA IV. Effects on folding and bioactivity” (Beilstein Journal of Organic Chemistry, 2012)

Experiments:
[1] = tested on: Staphylococcus aureus ATCC 25923; assay: Antibacterial activity, disk diffusion Bauer-Kirby method; assay type: cell-based; details: Müller-Hinton medium pH 7.2-7.4
Description: (§1) The antimicrobial activities were assessed on a large set of Gram-positive and Gram-negative bacterial strains. […] Peptide antibacterial activity was tested against Gram-positive and Gram-negative bacteria by the standardized disk diffusion Bauer-Kirby method using the Müller-Hinton culture medium at pH 7.2-7.4 as recommended by the National Committee for Clinical Laboratory Standards. The antibacterial activity assay was performed in a similar way to that described in reference. The activity of peptides was tested against clinical isolates of bacteria and reference bacterial strains: Staphylococcus aureus American Type Culture Collection strains (ATCC) 25923, Streptococcus pyogenes ATCC 19615, Escherichia coli ATCC 25922, Pseudomonas aeruginosa ATCC 27853, Klebsiella pneumoniae ATCC 13883, Salmonella entereditis 13076, and Proteus mirabilis ATCC 10975. The well-known antibiotics bacitracin and tetracyclin (10 μg/disk) were used as controls.

[2] = tested on: Streptococcus pyogenes ATCC 19615; assay: as above; assay type: cell-based; details: Müller-Hinton medium pH 7.2-7.4
Description: as §1

For [Leu^11-OMe] trichogin GA IV, the “antimicrobial activity on Staphylococcus aureus” value [1] was “active” and the “antimicrobial activity on Streptococcus pyrogenes” value [2] was “active”.
